Measurements from patent publication US6566348B1, “Pesticides based on cyclic polysiloxanes” (Bayer Aktiengesellschaft, priority 1995, dated 2003).

Assay: Crystallizing out at low temperatures
Assay type: physicochemical

C[Si]1(C)O[Si](C)(C)O[Si](C)(C)O[Si](C)(C)O[Si](C)(C)O1 [Decamethylcyclopentasiloxane, decamethylcyclopentasiloxane]
stability at low temperatures: stable at low temperatures, without crystallizing out
